In US11319298B2 (Merck Sharp & Dohme Corp., priority 2016, dated 2022):

target: T1, human M4 muscarinic acetylcholine receptor (Homo sapiens, UniProt P08173); assay: human FLIPR-based M4 PAM assay, CHO-K1 cells stably transfected with human M4 receptor and chimeric G-protein Gαqi5; type: cell-based; conditions: inflection point (IP) of dose response curve; acetylcholine added at 20% of maximum response; CHO-K1 human M4/Gαqi5, FLIPR Tetra
T1 construct: expressed in transfected cells; host or cells: CHO-K1
T1 sequence (P08173 1-479): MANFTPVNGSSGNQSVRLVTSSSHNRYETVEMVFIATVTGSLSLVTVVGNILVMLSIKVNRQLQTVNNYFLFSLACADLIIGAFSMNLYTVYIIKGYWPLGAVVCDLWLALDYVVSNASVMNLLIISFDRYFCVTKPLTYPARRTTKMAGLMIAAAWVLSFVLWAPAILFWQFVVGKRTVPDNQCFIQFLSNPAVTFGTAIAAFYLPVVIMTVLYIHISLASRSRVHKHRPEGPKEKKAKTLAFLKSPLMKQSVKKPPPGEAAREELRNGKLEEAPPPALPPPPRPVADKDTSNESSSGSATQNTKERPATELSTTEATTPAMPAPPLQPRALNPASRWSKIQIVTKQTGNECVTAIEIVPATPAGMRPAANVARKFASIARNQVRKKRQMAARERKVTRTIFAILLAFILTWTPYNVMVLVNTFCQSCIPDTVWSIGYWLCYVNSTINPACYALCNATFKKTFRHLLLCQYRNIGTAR
Experimental: In a typical experiment the M4 muscarinic acetylcholine receptor modulating activity of the compounds of the present invention was determined in accordance with the following experimental method. CHO-K1 cells stably transfected with human M4 receptor and chimeric G-protein Gαqi5 (Coward P, et al., Analytical Biochemistry, 270:242-248 (1999)) are thawed from liquid N2 storage, resuspended in growth medium, plated in black, clear bottom 384 well plates, and incubated 16-20 hours at 37° C., 5% CO2. On the day of assay, growth medium is removed, the cells are washed 2 times with wash buffer, and cells are incubated in dye loading buffer at 37° C., 5% CO2 for ˜1 hour. Following dye loading the cell plates are placed in a FLIPR Tetra instrument and while monitoring dye fluorescence (excitation […]), 10 uL of test substance at increasing concentrations is added, and fluorescence values are recorded for 4 min. Next, 10 uL of acetylcholine is added (final concentration calculated so as to achieve 20% of the maximum acetycholine response), and the fluorescence reading is continued for 3.5 min. In some cases, a third addition of acetylcholine (final concentration calculated to achieve 70% of the maximal acetylcholine response) is performed. The resulting dose response curves are fit to a 4 parameter logistic equation and the final result is determined as the inflection point (IP) of the curve
CHO-K1 cells stably transfected with human M4 receptor and chimeric G-protein Gαqi5 are thawed from liquid N2 storage, resuspended in growth medium, plated in black, clear bottom 384 well plates, and incubated 16-20 hours at 37° C., 5% CO2.
On the day of assay, growth medium is removed, the cells are washed 2 times with wash buffer, and cells are incubated in dye loading buffer at 37° C., 5% CO2 for ˜1 h. Following dye loading the cell plates are placed in a FLIPR Tetra instrument and while monitoring dye fluorescence ([…]), 10 uL of test substance at increasing concentrations is added, and fluorescence values are recorded for 4 min. Next, 10 uL of acetylcholine is added (final concentration calculated so as to achieve 20% of the maximum acetycholine response), and the fluorescence reading is continued for 3.5 min. In some cases, a third addition of acetylcholine (final concentration calculated to achieve 70% of the maximal acetylcholine response) is performed.

In order of rising EC50:
1. Cc1c(Cl)nc(CO)nc1N1CC[C@@H](Oc2ccc3[nH]ncc3c2)[C@@H](F)C1 [Example 90, (4-((3S,4R)-4-((1H-indazol-5-yl)oxy)-3-fluoropiperidin-1-yl)-6-chloro-5-methylpyrimidin-2-yl)methanol]  20 nM
2. Cc1c(Cl)nc(CO)nc1N1CCC(Oc2ccc3c(c2)OCCO3)CC1 [Example 92, (4-chloro-6-(4-((2,3-dihydrobenzo[b][1,4]dioxin-6-yl)oxy)piperidin-1-yl)-5-methylpyrimidin-2-yl)methanol]  29 nM
3. Cc1cc(C(=O)NCc2ccncc2)nnc1N1CCC(Oc2cccc(C#N)c2)CC1 [Example 106, 6-(4-(3-Cyanophenoxy)piperidin-1-yl)-5-methyl-N-(pyridin-4-ylmethyl)pyridazine-3-carboxamide]  33 nM
4. Cc1cc(C(=O)NCc2ccncc2)nnc1N1CCC(Oc2ccc3[nH]ccc3c2)CC1 [Example 110, 6-[4-(1H-indol-5-yloxy)piperidin-1-yl]-5-methyl-N-(pyridin-4-ylmethyl)pyridazine-3-carboxamide]  35 nM
5. Cc1nc2ccc(O[C@@H]3CCN(c4nc(CO)nc(Cl)c4C)C[C@@H]3F)cc2o1 [Example 52, (4-chloro-6-((3S,4R)-3-fluoro-4-((2-methylbenzo[d]oxazol-6-yl)oxy)piperidin-1-yl)-5-methylpyrimidin-2-yl)methanol]  53 nM
6. CCOC(=O)c1cc(C)c(N2CCC(Oc3cccc(C#N)c3)CC2)nn1 [Example 105, ethyl 6-(4-(3-cyanophenoxy)piperidin-1-yl)-5-methylpyridazine-3-carboxylate]  58 nM
7. COC(=O)c1cc(C)c(N2CCC(Oc3cccc(C#N)c3)CC2)nn1 [Example 58, methyl 6-(4-(3-cyanophenoxy)piperidin-1-yl)-5-methylpyridazine-3-carboxylate]  64 nM
8. Cc1c(Cl)nc(CO)nc1N1CCC(Oc2ccc3[nH]ccc3c2)CC1 [Example 97, (4-(4-((1H-indol-5-yl)oxy)piperidin-1-yl)-6-chloro-5-methylpyrimidin-2-yl)methanol]  68 nM
9. Cc1c(Cl)nc(CO)nc1N1CCC(Oc2ccc3c(c2)C(=O)OC3)CC1 [Example 24, 6-((1-(6-chloro-2-(hydroxymethyl)-5-methylpyrimidin-4-yl)piperidin-4-yl)oxy)isobenzofuran-1(3H)-one]  77 nM
10. COC(=O)c1cc(C)c(N2CCC(Oc3ccc(OC)cc3)CC2)nn1 [Example 10, methyl 6-(4-(4-methoxyphenoxy)piperidin-1-yl)-5-methylpyridazine-3-carboxylate]  82 nM
11. COc1ccc(OC2CCN(c3nnc(C(=O)NCCc4ccccc4Cl)cc3C)CC2)cn1 [Example 197, N-[2-(2-chlorophenyl)ethyl]-6-{4-[(6-methoxypyridin-3-yl)oxy]piperidin-1-yl}-5-methylpyridazine-3-carboxamide]  91 nM
12. Cc1cc(C(=O)N[C@H]2CCc3ncccc3C2)nnc1N1CCC(Oc2cccc(C#N)c2)CC1 [Example 130A, (S)-6-[4-(3-cyanophenoxy)piperidin-1-yl]-5-methyl-N-(5,6,7,8-tetrahydroquinolin-6-yl)pyridazine-3-carboxamide]  125 nM
13. CNc1ncnc(N2CCC(Oc3ccc(OC)nc3)CC2)c1C [Example 234, 6-(4-((6-methoxypyridin-3-yl)oxy)piperidin-1-yl)-N,5-dimethylpyrimidin-4-amine]  134 nM
14. COc1ccc(OC2CCN(c3nc(Cl)nc(Cl)c3C)CC2)cc1 [Example 77, 2,4-dichloro-6-(4-(4-methoxyphenoxy)piperidin-1-yl)-5-methylpyrimidine]  177 nM
15. Cc1ncc(C)c(N2CC[C@H](Oc3cccc(C#N)c3)[C@H](F)C2)n1 [Example 81, 3-(((3R,4S)-1-(2,5-dimethylpyrimidin-4-yl)-3-fluoropiperidin-4-yl)oxy)benzonitrile]  293 nM
16. COc1ccc(OC2CCN(c3nnc(-c4noc(C)n4)cc3C)CC2)cn1 [Example 264, 3-(6-(4-((6-Methoxypyridin-3-yl)oxy)piperidin-1-yl)-5-methylpyridazin-3-yl)-5-methyl-1,2,4-oxadiazole]  399 nM
17. COc1ccc(OC2CCN(c3ncnc(N(C)CCc4ccccn4)c3C)CC2)cn1 [Example 240, 6-(4-((6-methoxypyridin-3-yl)oxy)piperidin-1-yl)-N,5-dimethyl-N-(2-(pyridin-2-yl)ethyl)pyrimidin-4-amine]  413 nM
18. Cc1c(Cl)nc(CO)nc1N1CCC(Oc2ccc3ccc(=O)oc3c2)CC1 [Example 2, 7-((1-(6-chloro-2-(hydroxymethyl)-5-methylpyrimidin-4-yl)piperidin-4-yl)oxy)-2H-chromen-2-one]  427 nM
19. Cc1nc2cc(OC3CCN(c4nc(CO)nc(Cl)c4C)CC3)ccc2s1 [Example 44, 4(4-chloro-5-methyl-6-(4-((2-methylbenzo[d]thiazol-5-yl)oxy)piperidin-1-yl)pyrimidin-2-yl)methanol]  446 nM
20. COc1ccc(OC2CCN(c3nnc(C(=O)N[C@H]4CCc5ccccc54)cc3C)CC2)cn1 [Example 173, N-[(1S)-2,3-dihydro-1H-inden-1-yl]-6-{4-[(6-methoxypyridin-3-yl)oxy]piperidin-1-yl}-5-methylpyridazine-3-carboxamide]  552 nM
21. Cc1c(Cl)ncnc1N1CCC(Oc2cccnc2)CC1 [Example 14, 4-chloro-5-methyl-6-(4-(pyridin-3-yloxy)piperidin-1-yl)pyrimidine]  609 nM
22. COc1ccc(OC2CCN(c3nc(C(=O)NC(C)(C)C)nc(Cl)c3C)CC2)cn1 [Example 212]  705 nM
23. COc1ccc(OC2CCN(c3nnc(C(=O)NC4CCNC4=O)cc3C)CC2)cn1 (stereo not shown) [Example 180, 6-{4-[(6-methoxypyridin-3-yl)oxy]piperidin-1-yl}-5-methyl-N-(2-oxopyrrolidin-3-yl)pyridazine-3-carboxamide]  808 nM
24. COc1ccc(OC2CCN(c3ncncc3Br)CC2)cn1 [Example 95D, 5-bromo-4-(4-((6-methoxypyridin-3-yl)oxy)piperidin-1-yl)pyrimidine]  928 nM
25. Cc1c(-c2ccc3c(c2)OCCO3)ncnc1N1CCC(Oc2cccc(C#N)c2)CC1 [Example 250, 3-((1-(6-(2,3-dihydrobenzo[b][1,4]dioxin-6-yl)-5-methylpyrimidin-4-yl)piperidin-4-yl)oxy)benzonitrile]  1130 nM
26. Cc1cc(C(=O)N2CCc3snc(-c4cccnc4)c3C2)nnc1N1CCC(Oc2cccc(C#N)c2)CC1 [Example 204, 3-[(1-{4-methyl-6-[(3-pyridin-3-yl-6,7-dihydroisothiazolo[4,5-c]pyridin-5(4H)-yl)carbonyl]pyridazin-3-yl}piperidin-4-yl)oxy]benzonitrile]  1150 nM
27. COc1ccc(OC2CCN(c3nc(SC)ncc3C#N)CC2)cn1 [Example 85, 4-(4-((6-methoxypyridin-3-yl)oxy)piperidin-1-yl)-2-(methylthio)pyrimidine-5-carbonitrile]  1150 nM
28. COc1ccc(OC2CCN(c3nc(C)nc(N)c3C)CC2)cn1 [Example 87, 6-(4-((6-methoxypyridin-3-yl)oxy)piperidin-1-yl)-2,5-dimethylpyrimidin-4-amine]  1500 nM
29. COc1ccc([C@@H](C)NC(=O)c2cc(C)c(N3CCC(Oc4ccc(OC)nc4)CC3)nn2)cc1 [Example 188, N-[(1R)-1-(4-methoxyphenyl)ethyl]-6-{4-[(6-methoxypyridin-3-yl)oxy]piperidin-1-yl}-5-methylpyridazine-3-carboxamide]  1510 nM
30. COc1ccc(OC2CCN(c3ncnc(N4CC5(COC5)C4)c3C)CC2)cn1 [Example 233, 6-(6-(4-((6-methoxypyridin-3-yl)oxy)piperidin-1-yl)-5-methylpyrimidin-4-yl)-2-oxa-6-azaspiro[3.3]heptane]  2100 nM
31. COc1ccc(OC2CCN(c3nc(C)c(C(N)=O)cc3C)CC2)cn1 [Example 191, 6-{4-[(6-methoxypyridin-3-yl)oxy]piperidin-1-yl}-2,5-dimethypyridine-3-carboxamide]  2960 nM
